From PubChem BioAssay (NCI)
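Following 48 hours of exposure in 96-well plates, responses at five concentrations were used to interpolate endpoints linearly. TGI: concentration producing complete growth inhibition.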

Tests used:
Assay in all cases: DTP human tumour cell line panel, 48 h
[1] = test system: 786-0 renal
[2] = test system: A498 renal
[3] = test system: A549 NSCLC
[4] = test system: ACHN renal
[5] = test system: CAKI-1 renal
[6] = test system: CCRF-CEM leukemia
[7] = test system: COLO 205 colon
[8] = test system: DLD-1 colon
[9] = test system: DMS 114 small cell lung
[10] = test system: EKVX NSCLC
[11] = test system: HCC-2998 colon
[12] = test system: HCT-116 colon
[13] = test system: HOP-18 NSCLC
[14] = test system: HOP-62 NSCLC
[15] = test system: HT29 colon
[16] = test system: IGROV1 ovarian
[17] = test system: K-562 leukemia
[18] = test system: KM12 colon
[19] = test system: KM20L2 colon
[20] = test system: LXFL 529 NSCLC
[21] = test system: M14 melanoma
[22] = test system: M19-MEL melanoma
[23] = test system: MALME-3M melanoma
[24] = test system: MOLT-4 leukemia
[25] = test system: NCI-H23 lung
[26] = test system: NCI-H460 lung
[27] = test system: NCI-H522 lung
[28] = test system: OVCAR-3 ovarian
[29] = test system: OVCAR-4 ovarian
[30] = test system: OVCAR-5 ovarian
[31] = test system: OVCAR-8 ovarian
[32] = test system: RPMI-8226 leukemia
[33] = test system: SF-268 CNS
[34] = test system: SF-295 CNS
[35] = test system: SF-539 CNS
[36] = test system: SK-MEL-2 melanoma
[37] = test system: SK-MEL-28 melanoma
[38] = test system: SK-MEL-5 melanoma
[39] = test system: SK-OV-3 ovarian
[40] = test system: SN12C renal
[41] = test system: SNB-19 CNS
[42] = test system: SNB-75 CNS
[43] = test system: SNB-78 CNS
[44] = test system: SW-620 colon
[45] = test system: TK-10 renal
[46] = test system: U251 CNS
[47] = test system: UACC-257 melanoma
[48] = test system: UACC-62 melanoma
[49] = test system: UO-31 renal
[50] = test system: XF 498 CNS
[51] = test system: BT-549 breast
[52] = test system: DMS 273 small cell lung
[53] = test system: DU-145 prostate
[54] = test system: HCT-15 colon
[55] = test system: HL-60(TB) leukemia
[56] = test system: HOP-92 NSCLC
[57] = test system: HS 578T breast
[58] = test system: LOX IMVI melanoma
[59] = test system: MCF7 breast
[60] = test system: MDA-MB-231 breast
[61] = test system: MDA-MB-435
[62] = test system: MDA-N
[63] = test system: NCI-H226 lung
[64] = test system: NCI/ADR-RES ovarian
[65] = test system: PC-3 prostate
[66] = test system: RXF 393 renal
[67] = test system: SR leukemia
[68] = test system: T-47D breast

`COc1cc2cccc(NC(=O)c3cc(OC)c(OC)c(OC)c3Br)c2cc1OC` was tested, and the TGI [1] was over 100 µM, the TGI [2] was over 100 µM and the TGI [3] was 46 µM. For the same compound, the TGI [4] was 75.5 µM, the TGI [5] was 64.6 µM and the TGI [6] was 21.5 µM. For the same compound, the TGI [7] was 26.6 µM, the TGI [8] was over 100 µM and the TGI [9] was 12.8 µM. The TGI [10] was 75.9 µM, the TGI [11] was 85.4 µM and the TGI [12] was 36.6 µM. It also gave a TGI [13] of 74.4 µM, a TGI [14] of 42.3 µM and a TGI [15] of 71.9 µM. The TGI [16] was 44.6 µM, the TGI [17] was 46.6 µM and the TGI [18] was 27.5 µM. For the same compound, the TGI [19] was over 100 µM, the TGI [20] was 10.9 µM and the TGI [21] was 23.5 µM. The TGI [22] was 32.5 µM, the TGI [23] was 49.8 µM and the TGI [24] was 8.81 µM. The TGI [25] was 34.4 µM, the TGI [26] was 36.5 µM and the TGI [27] was 42.1 µM. For the same compound, the TGI [28] was 47.5 µM, the TGI [29] was 34.3 µM and the TGI [30] was 51.9 µM. The TGI [31] was 85.4 µM, the TGI [32] was 17 µM and the TGI [33] was 59.3 µM. For the same compound, the TGI [34] was 40.9 µM, the TGI [35] was 46.8 µM and the TGI [36] was 49 µM. It also gave a TGI [37] of 41.8 µM, a TGI [38] of 10.6 µM and a TGI [39] of 59.2 µM. It also gave a TGI [40] of over 100 µM, a TGI [41] of over 100 µM and a TGI [42] of 74.8 µM. The TGI [43] was 49 µM, the TGI [44] was 71 µM and the TGI [45] was 92.6 µM. The TGI [46] was 78.9 µM, the TGI [47] was 16.7 µM and the TGI [48] was 26.1 µM. The TGI [49] was 24.2 µM and the TGI [50] was 7.37 µM.

Compound `O=P1(O)c2ccccc2Nc2cc(C(F)(F)F)ccc21` has a TGI [1] of over 100 µM, a TGI [2] of over 100 µM and a TGI [3] of over 100 µM. For the same compound, the TGI [4] was over 100 µM, the TGI [51] was over 100 µM and the TGI [5] was over 100 µM. It also gave a TGI [6] of over 100 µM, a TGI [7] of over 100 µM and a TGI [8] of over 100 µM. The TGI [9] was over 100 µM, the TGI [52] was over 100 µM and the TGI [53] was over 100 µM. For the same compound, the TGI [10] was over 100 µM, the TGI [11] was over 100 µM and the TGI [12] was over 100 µM. It also gave a TGI [54] of over 100 µM, a TGI [55] of over 100 µM and a TGI [13] of over 100 µM. The TGI [14] was over 100 µM, the TGI [56] was over 100 µM and the TGI [57] was over 100 µM. The TGI [15] was over 100 µM, the TGI [16] was over 100 µM and the TGI [17] was over 100 µM. The TGI [18] was over 100 µM, the TGI [19] was over 100 µM and the TGI [58] was over 100 µM. The TGI [20] was over 100 µM, the TGI [21] was over 100 µM and the TGI [22] was over 100 µM. For the same compound, the TGI [23] was over 100 µM, the TGI [59] was over 100 µM and the TGI [60] was over 100 µM. It also gave a TGI [61] of over 100 µM, a TGI [62] of over 100 µM and a TGI [24] of over 100 µM. For the same compound, the TGI [63] was over 100 µM, the TGI [25] was over 100 µM and the TGI [26] was over 100 µM. The TGI [27] was over 100 µM, the TGI [64] was over 100 µM and the TGI [28] was over 100 µM. It also gave a TGI [29] of over 100 µM, a TGI [30] of over 100 µM and a TGI [31] of over 100 µM. It also gave a TGI [65] of over 100 µM, a TGI [32] of over 100 µM and a TGI [66] of over 100 µM. It also gave a TGI [33] of over 100 µM, a TGI [34] of over 100 µM and a TGI [35] of over 100 µM. It also gave a TGI [36] of over 100 µM, a TGI [37] of over 100 µM and a TGI [38] of over 100 µM. The TGI [39] was over 100 µM, the TGI [40] was over 100 µM and the TGI [41] was over 100 µM. It also gave a TGI [42] of over 100 µM, a TGI [43] of over 100 µM and a TGI [67] of over 100 µM. It also gave a TGI [44] of over 100 µM, a TGI [68] of over 100 µM and a TGI [45] of over 100 µM. It also gave a TGI [46] of over 100 µM, a TGI [47] of over 100 µM and a TGI [48] of over 100 µM. It also gave a TGI [49] of over 100 µM and a TGI [50] of over 100 µM.
